Assay results: patent US12134620B2 (ARAXES PHARMA LLC, priority 2018, dated 2024)

These compounds were tested against T1, KRAS G12C 1-169, his-tagged protein, GDP-loaded (Homo sapiens, UniProt P01116, G12C) (assay: Biochemical assay: covalent modification of KRAS G12C, analysed by mass spectrometry (RapidFire/TOF or Q-Exactive)). Settings: Modification activity, modification percentage from MS peak intensities.
T1 construct: KRAS G12C 1-169, his-tagged protein, GDP-loaded; His tag
Type: binding
How it was run: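 Covalent adduct formation was quantified by intact-protein mass spectrometry, either TOF or C4 LC-Q Exactive Plus, as percent modified versus unmodified protein after deconvolution. Compounds at 8 or 32 μM final were incubated with 0.5 or 2 μM GDP-bound KRAS G12C(1-169)-His in Hepes/NaCl/MgCl2 buffer before acid quench.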
Also: time not given here.

SMILES | Binding %
C=CC(=O)N1CC2(CC(=O)N(c3ncnc(-c4c(C)ccc5[nH]ncc45)c3C#N)C2)C1 [Compound I-273, 4-(2-acryloyl-7-oxo-2,6-diazaspiro[3.4]octan-6-yl)-6-(5-methyl-1H-indazol-4-yl)pyrimidine-5-carbonitrile] | + (+ indicates binding activity greater than 0% and up to 50%)
C=CC(=O)N1CC2(CCN(c3nc(OCc4ccc(C(F)(F)F)cn4)nc(-c4c(C)ccc5cnn(C)c45)c3C#N)C2)C1 [Compound I-155, 4-(2-acryloyl-2,6-diazaspiro[3.4]octan-6-yl)-6-(1,6-dimethyl-1H-indazol-7-yl)-2-((5-(trifluoromethyl)pyri-din-2-yl)methoxy)pyrimidine-5-carbonitrile] | ++ (++ indicates binding activity from 50 to 85%)
C=CC(=O)N1CC2(CCN(c3nc(OCc4cnc(C)nc4)nc(-c4c(C)ccc5cnn(C)c45)c3C#N)C2)C1 [Compound I-169, 4-(2-acryloyl-2,6-diazaspiro[3.4]octan-6-yl)-6-(1,6-dimethyl-1H-indazol-7-yl)-2-((2-methylpyrimidin-5-yl)methoxy)pyrimidine-5-carbonitirle] | ++ (++ indicates binding activity from 50 to 85%)
C=CC(=O)N1CC2(CCN(c3ncnc(N4CCC[C@@H]4C(N)=O)c3C#N)C2)C1 [Compound I-247, (R)-1-(6-(2-acryloyl-2,6-diazaspiro[3.4]octan-6-yl)-5-cyanopyrimidin-4-yl)pyrrolidine-2-carboxamide] | + (+ indicates binding activity greater than 0% and up to 50%)
C=CC(=O)N1CC2(CCN(c3nc(N4CCC(N5CCN(C)C6(CC6)C5)CC4)nc(-c4c(C)ccc5[nH]ncc45)c3C#N)C2)C1 [Compound I-194, 4-(2-acryloyl-2,6-diazaspiro[3.4]octan-6-yl)-6-(5-methyl-1H-indazol-4-yl)-2-(4-(4-methyl-4,7-diazaspiro[2.5]octan-7-yl)piperidin-1-yl)pyrimidine-5-carbonitrile] | +++ (+++ indicates binding activity greater than 85%)
C=CC(=O)N1CC2(CCN(c3nc(C#N)nc(-c4c(C)ccc5[nH]ncc45)c3C#N)C2)C1 [Compound I-10, 4-(2-acryloyl-2,6-diazaspiro[3.4]octan-6-yl)-6-(5-methyl-1H-indazol-4-yl)pyrimidine-2,5-dicarbonitrile] | ++ (++ indicates binding activity from 50 to 85%)
CC#CC(=O)N1CC2(CCN(c3cncc(-c4c(C)ccc5[nH]ncc45)c3C#N)C2)C1 [Compound I-272, 3-(2-(but-2-ynoyl)-2,6-diazaspiro[3.4]octan-6-yl)-5-(5-methyl-1H-indazol-4-yl)isonicotinonitrile] | + (+ indicates binding activity greater than 0% and up to 50%)
C=CC(=O)N1CC2(CCN(c3nc(N4CCC[C@H]4CO)nc(-c4c(C)ccc5[nH]ncc45)c3C#N)C2)C1 [Compound I-210, 4-(2-acryloyl-2,6-diazaspiro[3.4]octan-6-yl)-2-((S)-2-(hydroxymethyl)pyrro-lidin-1-yl)-6-(5-methyl-1H-indazol-4-yl)pyrimidin-5-carbonitrile] | + (+ indicates binding activity greater than 0% and up to 50%)
C=CC(=O)N1CC2(CCN(c3cnc(OCc4ccccc4)c(-c4c(C)ccc5[nH]ncc45)c3C#N)C2)C1 [Compound I-220, 5-(2-acryloyl-2,6-diazaspiro[3.4]octan-6-yl)-2-(benzyloxy)-3-(5-methyl-1H-indazol-4-yl)isonicotinonitrile] | ++ (++ indicates binding activity from 50 to 85%)
C=CC(=O)N1CC2(CCN(c3nc(OCc4cc(C(F)(F)F)ccn4)nc(-c4c(C)ccc5cnn(C)c45)c3C#N)C2)C1 [Compound I-166, 4-(2-acryloyl-2,6-diazaspiro[3.4]octan-6-yl)-6-(1,6-dimethyl-1H-indazol-7-yl)-2-((4-(trifluoromethyl)pyri-din-2-yl)methoxy)pyrimidine-5-carbonitrile] | ++ (++ indicates binding activity from 50 to 85%)
C=CC(=O)N1CC2(CCN(c3nc(N4CCC(CN(C)C)CC4)nc(-c4c(C)ccc5[nH]ncc45)c3C#N)C2)C1 [Compound I-213, 4-(2-acryloyl-2,6-diazaspiro[3.4]octan-6-yl)-2-(4-((dimethylamino)meth-yl)piperidin-1-yl)-6-(5-methyl-1H-indazol-4-yl)pyrimidine-5-carbontrile] | +++ (+++ indicates binding activity greater than 85%)
C=CC(=O)N1CC2(CCN(c3c(OC[C@@H]4CCCN4C)ncc(-c4c(C)ccc5[nH]ncc45)c3C#N)C2)C1 [Compound I-199, 3-(2-acryloyl-2,6-diazaspiro[3.4]octan-6-yl)-5-(5-methyl-1H-indazol-4-yl)-2-(((S)-1-methylpyrrolidin-2-yl)methoxy)isonicoti-nonitrile] | ++ (++ indicates binding activity from 50 to 85%)
CC#CC(=O)N1CC2(CCN(c3cncc(-c4c(C)ccc5[nH]nc(N)c45)c3C#N)C2)C1 [Compound I-278, 3-(3-amino-5-methyl-1H-indazol-4-yl)-5-(2-(but-2-ynoyl)-2,6-diazaspiro[3.4]octan-6-yl)isonicotinonitrile] | + (+ indicates binding activity greater than 0% and up to 50%)
C=CC(=O)N1CC2(CCN(c3nc(N4CC5CCC(C4)N5C)nc(-c4c(C)ccc5[nH]ncc45)c3C#N)C2)C1 [Compound I-47, 4-(2-acryloyl-2,6-diazaspiro[3.4]octan-6-yl)-6-(5-methyl-1H-indazol-4-yl)-2-(8-methyl-3,8-diazabicyclo[3.2.1]oc-tan-3-yl)pyrimidine-5-carbonitrile] | +++ (+++ indicates binding activity greater than 85%)
C=CC(=O)N1CC2(CCN(c3nc(-c4c(C)ccc5[nH]ncc45)nc(N4CCOCC4)n3)C2)C1 [Compound I-189, 1-(6-(4-(5-methyl-1H-indazol-4-yl)-6-morpholino-1,3,5-triazin-2-yl)-2,6-diazaspiro[3.4]octan-2-yl)prop-2-en-1-one] | + (+ indicates binding activity greater than 0% and up to 50%)
C=CC(=O)N1CC2(CCN(c3nc(OCCc4ncccn4)nc(-c4c(C)ccc5[nH]ncc45)c3C#N)C2)C1 [Compound I-14, 4-(2-acryloyl-2,6-diazaspiro[3.4]octan-6-yl)-6-(5-methyl-1H-indazol-4-yl)-2-(2-(pyrimidin-2-yl)ethoxy)pyrimidine-5-carbonitrile] | ++ (++ indicates binding activity from 50 to 85%)
C=CC(=O)N1CC2(CCN(c3nc(OC[C@@H]4CCCN4C)nc(-c4cc(C(N)=O)ccc4F)c3C#N)C2)C1 [Compound I-94, (S)-3-(6-(2-acryloyl-2,6-diazaspiro[3.4]octan-6-yl)-5-cyano-2-((1-methylpyrrolidin-2-yl)methoxy)pyrimidin-4-yl)-4-fluorobenzamide] | + (+ indicates binding activity greater than 0% and up to 50%)
C=CC(=O)N1CC2(CCN(c3nc(Oc4cnn(C)c4)nc(-c4c(C)ccc5[nH]ncc45)c3C#N)C2)C1 [Compound I-19, 4-(2-acryloyl-2,6-diazaspiro[3.4]octan-6-yl)-6-(5-methyl-1H-indazol-4-yl)-2-((1-methyl-1H-pyrazol-4-yl)oxy)pyrimidine-5-carbonitrile] | ++ (++ indicates binding activity from 50 to 85%)
